The IC50 is the concentration needed to halve the response being measured.

For the assay, the target named is T1, Recombinant human HSP90a (Homo sapiens, UniProt P07900).
T1 construct: host or cells: E. coli
Nature of the assay: HSP90 radioligand filter binding test ([3H]17AAG competition). The note with it: [3H]17AAG 0.08 μM, HSP90 1.5 μg/assay, 22° C., 30 min, pH 7.0; read-out: IC50 (HSP90 inhibition). The procedure: In the specific case, a radioligand filter binding test is used. The radioligand used here is tritium-labelled 17-allylaminogeldanamycin, [3H]17AAG. This filter binding test allows a targeted search for inhibitors which interfere with the ATP binding site.
HEPES filter buffer (50 mM HEPES, pH 7.0, 5 mM MgCl2, BSA 0.01%)
Multiscreen FB (1 μm) filter plate (Millipore, MAFBNOB 50).
The 96-well microtitre filter plates are firstly irrigated and coated with 0.1% of polyethylenimine.
The test is carried out under the following conditions:
Reaction temperature 22° C.
Reaction time: 30 min., shaking at 800 rpm
50 mM HEPES HCl, pH 7.0, 5 mM MgCl2, 0.01% (w/v) of BSA
At the end of the reaction, the supernatant in the filter plate is removed by suction with the aid of a vacuum manifold (Multiscreen Separation System, Millipore), and the filter is washed twice.
The filter plates are then measured in a beta counter (Microbeta, Wallac) with scintillator (Microscint 20, Packard).
“% of control” is determined from the “counts per minutes” values, and the IC-50 value of a compound is calculated therefrom.
For `Cc1cccc(Cc2n[nH]c3cc(O)c(C(=O)N4Cc5ccccc5C4)cc23)c1` [Compound A1, 5-(1,3-dihydroisoindol-2-ylcarbonyl)-3-(3-methylbenzyl)-6-hydroxy-1H-indazole], the concentration for half-maximal inhibition (IC50) lay within 0.01 to 1 µM. In the case of `Cc1cccc(Cc2n[nH]c3cc(O)c(C(=O)N4CCc5ccccc5C4)cc23)c1` [Compound A2], the IC50 lay within 0.01 to 1 µM. To `COc1cccc(Cc2n[nH]c3cc(O)c(C(=O)N4Cc5ccccc5C4)cc23)c1` [Compound A3, 5-(1,3-Dihydroisoindol-2-ylcarbonyl)-3-(3-methoxybenzyl)-6-hydroxy-1H-indazole] belongs 0.01 to 1 µM; to `CCCCc1n[nH]c2cc(O)c(C(=O)N3Cc4ccccc4C3)cc12` [Compound A4, 5-(1,3-Dihydroisoindol-2-ylcarbonyl)-3-butyl-6-hydroxy-1H-indazole], 0.01 to 1 µM; to `O=C(c1cc2c(Cc3cccc(Cl)c3)n[nH]c2cc1O)N1CCC(O)C1` (stereo not drawn) [Compound A5, 5-(3-Hydroxypyrrolidin-1-ylcarbonyl)-3-(3-chlorobenzyl)-6-hydroxy-1H-indazole], 0.01 to 1 µM. Turning to `O=C(c1cc2c(Cc3cccc(Cl)c3)n[nH]c2cc1O)N1CC[C@@H](O)C1` [Compound A7, 5-((R)-3-Hydroxypyrrolidin-1-ylcarbonyl)-3-(3-chlorobenzyl)-6-hydroxy-1H-indazole], the IC50 lay in the range of 0.01 to 1 µM. For `Cc1cccc(Cc2n[nH]c3cc(O)c(C(=O)N4CCOCC4)cc23)c1` [Compound A10], the IC50 was 0.01 to 1 µM. To `Cc1cccc(Cc2n[nH]c3cc(O)c(C(=O)N4CCc5ccccc54)cc23)c1` [Compound A11] belongs 0.01 to 1 µM; to `CCCCc1n[nH]c2cc(O)c(C(=O)N3Cc4ccc(Br)cc4C3)cc12` [Compound A14, 5-(5-Bromo-1,3-dihydroisoindol-2-ylcarbonyl)-3-butyl-6-hydroxy-1H-indazole], 1 to 10 µM; to `CCCc1n[nH]c2cc(O)c(C(=O)N3Cc4ccc(Br)cc4C3)cc12` [Compound A15, 5-(5-Bromo-1,3-dihydroisoindol-2-ylcarbonyl)-3-propyl-6-hydroxy-1H-indazole], 0.01 to 1 µM. Take `Cc1cccc(Cc2n[nH]c3cc(O)c(C(=O)N4CCCC4)cc23)c1` [Compound A16, 5-(Pyrrolidin-1-ylcarbonyl)-3-(3-methylbenzyl)-6-hydroxy-1H-indazole]: the IC50 was 0.01 to 1 µM. For the molecule `Cc1cccc(Cc2n[nH]c3cc(O)c(C(=O)N4CCN(C)CC4)cc23)c1` [Compound A17], the IC50 is 0.01 to 1 µM. To `O=C(c1cc2c(CC3CCCC3)n[nH]c2cc1O)N1Cc2ccccc2C1` [Compound A18, 5-(1,3-Dihydroisoindol-2-ylcarbonyl)-3-cyclopentylmethyl-6-hydroxy-1H-indazole] belongs 0.01 to 1 µM. To `CCCc1n[nH]c2cc(O)c(C(=O)N3Cc4ccc(N5CCOCC5)cc4C3)cc12` [Compound A19] belongs 0.01 to 1 µM. `CCCc1n[nH]c2cc(O)c(C(=O)N3Cc4ccc(N5CCN(C)CC5)cc4C3)cc12` [Compound A20]: the half-maximal inhibitory concentration (IC50) lay within 0.01 to 1 µM. `CCCc1n[nH]c2cc(O)c(C(=O)N3Cc4ccc(OCCN(C)C)cc4C3)cc12` [Compound A26, [5-(2-dimethylaminoethoxy)-1,3-dihydroisoindol-2-yl]-(6-hydroxy-3-propyl-1H-indazol-5-yl)methanone]: the IC50 lay within 0.01 to 1 µM. Take `CC(C)CCc1n[nH]c2cc(O)c(C(=O)N3Cc4ccc(OCCN(C)C)cc4C3)cc12` [Compound A27, [5-(2-dimethylaminoethoxy)-1,3-dihydroisoindol-2-yl]-[6-hydroxy-3-(3-methylbutyl)-1H-indazol-5-yl]methanone]: the IC50 was in the range of 0.01 to 1 µM. As to `CN(C)CCOc1ccc2c(c1)CN(C(=O)c1cc3c(CC4CCCC4)n[nH]c3cc1O)C2` [Compound A28, (3-cyclopentylmethyl-6-hydroxy-1H-indazol-5-yl)-[5-(2-dimethylaminoethoxy)-1,3-dihydroisoindol-2-yl]methanone], the IC50 was in the range of 0.01 to 1 µM. To `CN(C)CCOc1ccc2c(c1)CN(C(=O)c1cc3c(CC4CCCCC4)n[nH]c3cc1O)C2` [Compound A29, (3-cyclohexylmethyl-6-hydroxy-1H-indazol-5-yl)-[5-(2-dimethylaminoethoxy)-1,3-dihydroisoindol-2-yl]methanone] belongs 0.01 to 1 µM; to `CC(C)CCc1n[nH]c2cc(O)c(C(=O)N3Cc4ccc(OC5CCN(C)CC5)cc4C3)cc12` [Compound A30, [6-hydroxy-3-(3-methylbutyl)-1H-indazol-5-yl]-[5-(1-methylpiperidin-4-yloxy)-1,3-dihydroisoindol-2-yl]methanone], 0.01 to 1 µM.

For the molecule `CN1CCC(Oc2ccc3c(c2)CN(C(=O)c2cc4c(CC5CCCC5)n[nH]c4cc2O)C3)CC1` [Compound A31, (3-cyclopentylmethyl-6-hydroxy-1H-indazol-5-yl)-[5-(1-methylpiperidin-4-yloxy)-1,3-dihydroisoindol-2-yl]methanone], the IC50 is 0.01 to 1 µM. As to `CN1CCC(Oc2ccc3c(c2)CN(C(=O)c2cc4c(CC5CCCCC5)n[nH]c4cc2O)C3)CC1` [Compound A32, (3-Cyclohexylmethyl-6-hydroxy-1H-indazol-5-yl)-[5-(1-methylpiperidin-4-yloxy)-1,3-dihydroisoindol-2-yl]methanone], the IC50 lay within 0.01 to 1 µM. As to `CC(C)CCc1n[nH]c2cc(O)c(C(=O)N3Cc4ccc(OCCCN(C)C)cc4C3)cc12` [Compound A33, [5-(3-Dimethylaminopropoxy)-1,3-dihydroisoindol-2-yl]-[6-hydroxy-3-(3-methylbutyl)-1H-indazol-5-yl]methanone], the IC50 fell in the range of 0.01 to 1 µM. Turning to `CN(C)CCCOc1ccc2c(c1)CN(C(=O)c1cc3c(CC4CCCC4)n[nH]c3cc1O)C2` [Compound A34], the IC50 fell in the range of 0.01 to 1 µM.

Take `CN(C)CCCOc1ccc2c(c1)CN(C(=O)c1cc3c(CC4CCCCC4)n[nH]c3cc1O)C2` [Compound A35, (3-Cyclohexylmethyl-6-hydroxy-1H-indazol-5-yl)-[5-(3-dimethylaminopropoxy)-1,3-dihydroisoindol-22-yl]methanone]: the IC50 was in the range of 0.01 to 1 µM. Take `CCN(C)CCOc1ccc2c(c1)CN(C(=O)c1cc3c(CCC(C)C)n[nH]c3cc1O)C2` [Compound A36, {5-[2-(Ethylmeethylamino)ethoxy]-1,3-dihydroisoindol-22-yl}-[6-hydroxy-3-(3-methylbutyl)-1H-indazol-5-yl]methanone]: the IC50 is 0.01 to 1 µM. To `CCN(C)CCOc1ccc2c(c1)CN(C(=O)c1cc3c(CC4CCCC4)n[nH]c3cc1O)C2` [Compound A37, (3-Cyclopentylmethyl-6-hydroxy-1H-indazol-5-yl)-{5-[2-(ethylmethylamino)ethoxy]-1,3-dihydroisoindol-2-yl}methanone] belongs 0.01 to 1 µM; to `CCN(C)CCOc1ccc2c(c1)CN(C(=O)c1cc3c(CC4CCCCC4)n[nH]c3cc1O)C2` [Compound A38, (3-Cyclohexylmethyl-6-hydroxy-1H-indazol-5-yl)-{5-[2-(ethylmethylamino)ethoxy]-1,3-dihydroisoindol-2-yl}methanone], 0.01 to 1 µM. With `CC(C)CCc1n[nH]c2cc(O)c(C(=O)N3Cc4ccc(OCCN5CCCCC5)cc4C3)cc12` [Compound A39, [6-Hydroxy-3-(3-methylbutyl)-1H-indazol-5-yl]-[5-(2-piperidin-1-ylethoxy)-1,3-dihydroisoindol-2-yl]methanone], the IC50 lay within 0.01 to 1 µM.

Turning to `O=C(c1cc2c(CC3CCCC3)n[nH]c2cc1O)N1Cc2ccc(OCCN3CCCCC3)cc2C1` [Compound A40, (3-Cyclopentylmethyl-6-hydroxy-1H-indazol-5-yl)-[5-(2-piperidin-1-ylethoxy)-1,3-dihydroisoindol-2-yl]methanone], the IC50 was in the range of 0.01 to 1 µM. For `O=C(c1cc2c(CC3CCCCC3)n[nH]c2cc1O)N1Cc2ccc(OCCN3CCCCC3)cc2C1` [Compound A41, (3-Cyclohexylmethyl-6-hydroxy-1H-indazol-5-yl)-[5-(2-piperidin-1-ylethoxy)-1,3-dihydroisoindol-2-yl]methanone], the IC50 lay within 0.01 to 1 µM. For the molecule `N#CCCCOc1ccc2c(c1)CN(C(=O)c1cc3c(CC4CCCC4)n[nH]c3cc1O)C2` [Compound A43, 4-[2-(3-Cyclopentylmethyl-6-hydroxy-1H-indazole-5-carbonyl)-2,3-dihydro-1H-isoindol-5-yloxy]butyronitrile], the IC50 was in the range of 0.01 to 1 µM.

As to `O=C(c1cc2c(CC3CCCCC3)n[nH]c2cc1O)N1Cc2ccc(OCCN3CCOCC3)cc2C1` [Compound A47, (3-Cyclohexylmethyl-6-hydroxy-1H-indazol-5-yl)-[5-(2-morpholin-4-ylethoxy)-1,3-dihydroisoindol-2-yl]methanone], the IC50 was 0.01 to 1 µM. For the molecule `CCCc1n[nH]c2cc(O)c(C(=O)N3Cc4ccccc4C3C(=O)NCC)cc12` (stereo not drawn) [Compound A48, N-Ethyl-2-(6-hydroxy-3-propyl-1H-indazole-5-carbonyl)-2,3-dihydro-1H-isoindole-1-carboxamide], the concentration for half-maximal inhibition (IC50) was in the range of 1 to 10 µM. `CC(C)Cc1n[nH]c2cc(O)c(C(=O)N3Cc4ccccc4C3)cc12` [Compound A49, (1,3-Dihydroisoindol-2-yl)(6-hydroxy-3-isobutyl-1H-indazol-5-yl)methanone]: the IC50 lay in the range of 0.01 to 1 µM. In the case of `O=C(c1cc2c(CC3CCCCC3)n[nH]c2cc1O)N1Cc2ccccc2C1` [Compound A50, (3-Cyclohexylmethyl-6-hydroxy-1H-indazol-5-yl)-(1,3-dihydroisoindol-2-yl)methanone] it was 0.01 to 1 µM.

The values above are taken from patent publication US20100256137A1, “INDAZOLAMIDE DERIVATIVES” (MERCK PATENT GESELLSCHAFT MIT BESCHRANKTER HAFTUNG, priority 2007, published 2010).
